Patent US7531333B2, “Process for producing isoprenoid compounds by microorganisms and a method for screening compounds with antibiotic or weeding activity” (Kyowa Hakko Kogyo Co., Ltd., priority 1998, dated 2009)
Like-named read-outs stand apart in the source and are kept apart here.

Experiments:
[1] = target: T1, 1-deoxy-D-xylulose 5-phosphate reductoisomerase (Escherichia coli, UniProt P45568); test: Enzymatic activity of yaeM gene product (NADPH decrease, absorbance at 340 nm); assay type: biochemical, E. coli
T1 construct: made in house; host or cells: E. coli M15/pREP4
T1 sequence (P45568 1-398 R277V/T278R/P279Q/I280L/A281P/H282T/T283P/M284W): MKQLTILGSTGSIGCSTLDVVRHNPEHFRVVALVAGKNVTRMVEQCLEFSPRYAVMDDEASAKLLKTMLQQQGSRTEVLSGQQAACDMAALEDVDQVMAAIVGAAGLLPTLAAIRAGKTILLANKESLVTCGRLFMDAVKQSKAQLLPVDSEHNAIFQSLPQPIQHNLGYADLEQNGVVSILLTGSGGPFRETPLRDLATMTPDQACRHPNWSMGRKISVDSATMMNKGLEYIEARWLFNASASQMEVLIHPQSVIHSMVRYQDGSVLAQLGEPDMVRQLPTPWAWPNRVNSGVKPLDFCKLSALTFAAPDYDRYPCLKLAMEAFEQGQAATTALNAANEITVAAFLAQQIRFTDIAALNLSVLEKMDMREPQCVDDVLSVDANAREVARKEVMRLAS
Experimental: (§1) […] of 1-deoxy-D-xylulose 5-phosphate (final concentration) synthesized as described above was added to 1 ml of a reaction solution containing […] Tris-hydrochloric acid (pH 7.5), […] MmCl2, […] NADPH and yaeM gene product obtained in Example 8 (2) ? , and then incubated at 37° C.
The enzymological characteristics of 1-deoxy-D-xylulose 5-phosphate reductoisomerase were examined using 1 ml of the reaction system as described in Example 8 (2) ? . Here, 1 unit is defined as the activity to oxidize 1 mmol of NADPH per a minute.

yaeM-deleted strain = test: Cell growth of yaeM-disrupted strain on LB agar with 2-C-methyl-D-erythritol; assay type: cell-based, E. coli; conditions: 1 g/l of 2-C-methyl-D-erythritol, 37° C., 2 days
Experimental: (§2) The yaeM-disrupted strain produced as described above and its parent strain FS1576 were spread on LB agar medium and the same medium containing 1 g/l of 2-C-methyl-D-erythritol, then cultured at 37° C.

FS1576 = test: Cell growth of parent strain FS1576 on LB agar with 2-C-methyl-D-erythritol; assay type: cell-based, E. coli; conditions: FS1576, 1 g/l of 2-C-methyl-D-erythritol, 37° C., 2 days
Experimental: as §2

[2] = target: T1, 1-deoxy-D-xylulose 5-phosphate reductoisomerase; assay type: biochemical, E. coli; conditions: various concentrations, 37° C., FIG. 4
Experimental: as §1

E. coli W3110 = test: Growth of E. coli W3110 on LB agar medium containing fosmidomycin; assay type: cell-based; conditions: 37° C., two days
Experimental: E. coli W3110 was spread on LB agar medium, the same medium containing 3.13 mg/l of fosmidomycin, and the same medium containing 3.13 mg/l of fosmidomycin and 0.25 g/l of 2-C-methyl-D-erythritol, then cultured at 37° C.

[3] = additive at 1 mol/l, N.D. = no activity was detected, 1 unit = activity to oxidize 1 mmol of NADPH per minute

NC(=O)c1ccc[n+]([C@@H]2O[C@H](COP(=O)([O-])OP(=O)(O)OC[C@H]3O[C@@H](n4cnc5c(N)ncnc54)[C@H](OP(=O)(O)O)[C@@H]3O)[C@@H](O)[C@H]2O)c1 [NADP]
Km ([1]; in the presence of MnCl2): 7.4 µM

O=S(=O)([O-])[O-].[Zn+2] [ZnSO4]
Specific Activity [1, 3]: 0.3 units/mg protein

NC(=O)C1=CN([C@@H]2O[C@H](COP(=O)(O)OP(=O)(O)OC[C@H]3O[C@@H](n4cnc5c(N)ncnc54)[C@H](O)[C@@H]3O)[C@@H](O)[C@H]2O)C=CC1 [NADH]
Activity when NADPH was replaced with NADH ([1]; relative to activity with NADPH): below 1/100

[Cl-].[Cl-].[Co+2] [CoCl2]
Specific Activity [1]: 6.0 units/mg protein

[Ca+2].[Cl-].[Cl-] [CaCl2]
Specific Activity [1, 3]: 0.2 units/mg protein

[Cl-].[Cl-].[Mg+2] [MgCl2]
Specific Activity [1, 3]: 4.0 units/mg protein

C[C@](O)(CO)[C@H](O)CO [ME, 2-C-methyl-D-erythritol]
Cell growth on LB + ME (yaeM-deleted strain): + | Cell growth on LB + ME (FS1576): +

CC(=O)[C@@H](O)[C@H](O)CO [1-deoxy-D-xylulose]
Reaction when used as substrate instead of 1-deoxy-D-xylulose 5-phosphate [1]: No reaction occurred

[Cl][Mn][Cl] [MnCl2]
Specific Activity [1, 3]: 11.8 units/mg protein

O=CN(O)CCCP(=O)(O)O [fosmidomycin, 3-(N-formyl-N-hydroxyamino)propylphosphonic acid]
Inhibition of 1-deoxy-D-xylulose 5-phosphate reductoisomerase [2]: inhibit | Growth of the microorganism on LB agar medium (E. coli W3110; 3.13 mg/l of fosmidomycin and 0.25 g/l of 2-C-methyl-D-erythritol): could grow | Growth of the microorganism on LB agar medium (E. coli W3110; 3.13 mg/l of fosmidomycin only): no microorganism grew

O=S(=O)([O-])[O-].[Ni+2] [NiSO4]
Specific Activity [1, 3]: 0.2 units/mg protein
